The source of these data is US10660789B2, “1,4-dihydropyridine derivatives with HSP modulating activity” (Richter Gedeon NYRT., priority 2011, dated 2020).

The test system of series [1] is B16F10 melanoma cells. Put plainly: Vincristine cytotoxicity in combination, B16F10 melanoma cells. Format: cell-based. The settings on record: Mus musculus, read-out: IC50 of VR (50% inhibition of cell growth). On the procedure:
Cells were homogenously distributed on 96-well plates in 5×10^3 cells/well density then incubated for 24 h at 37° C. On the next day cells were treated with compounds of the invention in 100 nM-200 μM concentration range for 24 h. The viability of the cells were measured using alamarBlue® assay kit according to the supplier's instructions.
The rationale for combination chemotherapy is to use drugs that work by different mechanisms of action, thereby decreasing the likelihood that resistant cancer cells will develop.

Series [2] concerns Hsp25 promoter. Put plainly: Hsp25 promoter-GFP reporter in SHSY5Y cells, flow cytometry. The format is cell-based, human. The method, then: (§1) The Hsp co-inducing effect of the compounds on stress response was tested on B16 mouse melanoma and SHSY5Y human neuroblastoma cell lines stably transfected with Hsp promoter probing plasmids. This kind of promoter probing, using the promoter region of a given gene conjugated with fluorescent protein is used as a best and fastest test system for finding drugs which modulate the activity of the gene followed by the given promoter (Wyshocka et al., Mol. Cel. Biochem. 215:153-156, 2000).
(§2) Reporter plasmids, containing the Hsp70 and/or Hsp25 promoter conjugated to either YFP or GFP (yellow or green fluorescent protein), were stably transfected into the cells and the expression of YFP or GFP was followed by flow cytometry. Cells were either kept at 37° C. or exposed to heat shock at 42° C. for 1 hour followed by a 16 hour recovery period at 37° C. in the presence or absence of different concentrations of the test compound. After recovery the expression of YFP or GFP which is in straight correlation with the promoter activity of Hsp70 or Hsp27 genes was followed by measuring the fluorescence intensity of the cells by flow cytometry. Fluorescence intensity is in straight correlation with the amount of fluorescent protein (GFP or YFP) produced under the control of hsp promoter. The mean fluorescence intensity of YFP or GFP produced is shown as “Hsp promoter activity”.
The fluorescence intensity of GFP and YFP […].
Selectivity of the Hsp25 co-inducing activity of compound of Ex. 11 is shown on FIG. 3. […] The fluorescence intensity of GFP produced as a result of Hsp25 promoter activity was measured by flow cytometry.
(§3) Cells were homogenously distributed on 6-well plates in 1×10^5 cells/well density. B16-pHsp25-GFP and B16-pHsp70-YFP melanoma cells were grown in RPMI-1640 medium supplemented with 10% Fetal bovine serum (FBS), penicillin (200 units/ml), streptomycin (200 μg/ml) and 2 mM L-Glutamine. […] The changes in cells' fluorescence were detected using BD FACSCalibur flow cytometer.
On the technique in general: A flow cytometer gives signals particle by particle.

Series [3] has as its system Hsp25. Put plainly: Other in vitro effects, Hsp25 (Table 3). Format: cell-based, mouse and human. More on the design: key: +: co-inducing activity; −: silencing activity; 0: with the experimental methods applied no other HSP modulating effects could be identified. The method, then: as §1, §2, §3
SY-SY5Y and B16 cells were extracted in NP-40 lysis buffer (PBS pH 7.4, 1% protease inhibitor coctail and 1% Triton X-100). […] The immune complexes were detected with chemo-luminescent substrate of peroxidase according to the supplier's instructions. Images taken from the membranes were analyzed using AlphaEase FC software.

The test system of series [4] is Ca^2+ channel. Put plainly: Hsp modulating versus Ca2+ antagonist effect.
In series [5] the test system is Hsp70 promoter. Put plainly: Hsp70 promoter-YFP reporter in B16 F-10 melanoma cells, flow cytometry. Format: cell-based, mouse. The settings on record: stress induced, FIG. 4. On the procedure: as §1
Reporter plasmids, containing the Hsp70 and/or Hsp25 promoter conjugated to either YFP or GFP (yellow or green fluorescent protein), were stably transfected into the cells and the expression of YFP or GFP was followed by flow cytometry. […] After recovery the expression of YFP or GFP which is in straight correlation with the promoter activity of Hsp70 or Hsp27 genes was followed by measuring the fluorescence intensity of the cells by flow cytometry. Fluorescence intensity is in straight correlation with the amount of fluorescent protein (GFP or YFP) produced under the control of hsp promoter. The mean fluorescence intensity of YFP or GFP produced is shown as “Hsp promoter activity”.
Some of the compounds are Hsp70 selective stress protein response silencers as shown on FIG. 4. […] The fluorescence intensity of YFP produced as a result of Hsp70 promoter activity was measured by flow cytometry. […]

Series [6] can be described thus: Acute toxicity (LD50). The settings on record: in vivo.
The subject of series [7] is B16 melanoma cells. Put plainly: Experimental metastatic melanoma, B16 cells i.v. in C57Bl/6 mice. The format is in vivo, mouse. On the procedure:
The anticancer activity was tested in C57Bl/6 mouse (B6), the best known syngeneic mouse model of experimental metastatic melanoma. C57Bl/6 mice injected with B16 melanoma cells subcutaneously or intramuscularly develop primary tumors that, in a part of the recipients, give rise to lung metastases. When the B16 cells are injected intravenously via the tail vein, a fraction of the tumor cells homes directly in the lung, where they develop into multiple independent tumor nodules termed “experimental metastases”. Although lung tumors are the most prominent, brain, liver and kidney tumors are also detectable in intravenously injected mice. Since the behavior of the tumor-bearing mice is quite uniform, the model is suitable for simultaneous testing of high numbers of drug candidates in a limited number of experimental animals.
The in vivo tumor experiments were performed with cultured B16 cells that were previously re-isolated from lung metastatic nodules, therefore their metastatic potential was kept optimal. The tumor cells liberated from the tumor mass by trypsin digestion were expanded in cell culture and stored in aliquots in liquid nitrogen, while the number of in vitro passages was kept to a minimum. In the experiments, B6 mice were injected with 100 000 B16 melanoma cells i.v. via the tail vein. The drug candidates were dissolved in physiological saline then they were administered i.p. in a volume of 100 ul. Daily treatment of tumor bearing mice started at day 7 after the tumor injection. The body weight of the mice was measured at day 1, 7, 14 and 21. The survival of the tumor bearing mice was recorded daily. All experiments were performed in accordance with national and European animal welfare guidelines. To prevent unnecessary suffering, moribund mice were euthanized.

Structures can show the parent of a compound that is named as a salt. Where two headings read alike, the source gives them in different places.

One may read the IC50 as the concentration at which inhibition is half-maximal. Regarding `CC[C@]1(O)C[C@H]2CN(CCc3c([nH]c4ccccc34)[C@@](C(=O)OC)(c3cc4c(cc3OC)N(C=O)[C@H]3[C@@](O)(C(=O)OC)[C@H](OC(C)=O)[C@]5(CC)C=CCN6CC[C@]43[C@@H]65)C2)C1` [VR, vincristine, reference compound], in series [1] (B16-F10, VR treatment alone), the IC50 is 1.3 nM.
For orientation: melting point means the temperature, or range, at which the solid turns liquid. On to `CCN1C(C)=C(C(=O)OC)C(c2ccc(C(F)(F)F)cc2)C(C(=O)OC)=C1C` [Example 11, Dimethyl 1-ethyl-2,6-dimethyl-4-(4-trifluoromethylphenyl)-1,4-dihydropyridine-3,5-dicarboxylate], for which the melting point was in the range of 135 to 137 °C. The “activity of the promoter of the Hsp25 gene at 37° C.” value in series [2] (37° C.) was “does not affect the activity of the promoter of the Hsp25 gene at 37 °C”. Also, in series [2] (heat stress, FIG. 3), the Hsp25 co-inducing activity entry is on record as “strong, concentration dependent co-inducer for Hsp25 stress protein”. Also, in series [3], the “Other in vitro effects: Hsp25” value is recorded as “Hsp25+”.
`CCC1=C(C(=O)OC)C(c2ccc(C(F)(F)F)cc2)C(C(=O)OC)=C(CC)N1C` [Example 27, Dimethyl 2,6-diethyl-1-methyl-4-(triflouromethyl-phenyl)-1,4-dihydropyridine-3,5-dicarboxylate] came in with a melting point of 136 to 138 °C. In series [4], the Ca antagonist effect result is “no Ca antagonist effect”. The Hsp70 silencer activity result in series [5] is recorded as “strong concentration dependent silencer for stress induced Hsp70 gene activity”. Besides, in series [1] (B16-F10, VR with Ex 27 at 10 μM), the IC50 turned out to be 0.4 nM.
`COC(=O)C1=C(C#N)NC(C)=C(C(=O)OC(C)C)C1c1cccc([N+](=O)[O-])c1` (centres unmarked) [Nilvadipine, reference compound]: the “index of EC50 HSP-modulating/Ca^2+ antagonist effect” value in series [4] is “about 1”.
Broadly, the LD50 is the dose expected to kill half of the subjects tested. Consider `COC(=O)C1=C(CCN2CCCCC2)N(C)C(CCN2CCCCC2)=C(C(=O)OC)C1c1ccc(C(F)(F)F)cc1` [Example 17, Dimethyl 1-methyl-2,6-bis-(2-piperidin-1-yl-ethyl)-4-(4-trifluoromethylphenyl)-1,4-dihydropyridine-3,5-dicarboxylate dihydrochloride], for which the LD50 in series [6] turned out to be 150 mg/kg. The “Increase in life span” value turned out to be 23.1% in series [7] (1 mg/kg i.p. daily from day 7 to day 18), 40.8% in series [7] (3 mg/kg i.p. daily from day 7 to day 18) and 53.7% in series [7] (10 mg/kg i.p. daily from day 7 to day 18). Besides, the Mean survival time in series [7] (1 mg/kg i.p. daily from day 7 to day 18, FIG. 8) came out at 31.0 ± 3.7 days; in series [7] (3 mg/kg i.p. daily from day 7 to day 18, FIG. 8), 35.55 ± 3.80 days; in series [7] (10 mg/kg i.p. daily from day 7 to day 18, FIG. 8) it was 38.10 ± 10.45 days. In series [7] (10 mg/kg i.p. daily, tumor bearing mice), the “drug-related mortality and weight loss” value is “did not produce drug-related mortality and statistically significant drug related weight loss”. Further, the In vivo efficacy entry in series [7] (model in which efficacy was shown) was “Cancer mono-”. The “Other in vitro effects: Hsp25” value in series [3] is given as “Hsp25 0”.
